Measured values published in patent US6218378A, “Anti-tumor agents comprising pyridyl-substituted metal-diphosphine complex” (priority 1994, dated 2001).
Read-outs that look alike come from different tables or passages of the source.

Legend:
JAM = conditions: ID37 data from Ying Dong et al. submitted for publication; cited from earlier work
CH1 [1] = conditions: data from Kelland et al., 1992; cited from earlier work
41M [2] = conditions: data from Kelland et al., 1992; cited from earlier work
HeLa = conditions: ID37 data from Ying Dong et al. submitted for publication; cited from earlier work
41M-cisR [3] = conditions: data from Kelland et al., 1992; cited from earlier work
CH1-cisR [4] = conditions: data from Kelland et al., 1992; cited from earlier work
HeLa-S1a = conditions: ID37 data from Ying Dong et al. submitted for publication; cited from earlier work
SKOV-3 [5] = conditions: data from McKeage et al., 1994; cited from earlier work
Rhodamine 123 uptake = conditions: cells treated with cisplatin; cited from earlier work
CI-80-13S = conditions: ID37 data from Ying Dong et al. submitted for publication; cited from earlier work
[6] = test system: mitochondria of carcinoma derived cells; conditions: carcinoma derived versus untransformed cells; cited from earlier work
CH1 [7] = assay: cytotoxicity assay, sulforhodamine B; assay type: cell-based, human; conditions: Homo sapiens, 96 hrs, mean ± SD or individual values when n<3
Experimental: (§1) In Table 2, reference is made to cell lines 41M, 41M-cisR, SKOV-3, CH1 and CH1-cisR.
(§2) J. Cancer 69 1-7. The characteristics of the cell line pairs CH1/CH1 cisR, 41M/41McisR and 41M/SKOV3 are described in Table 3.
(§3) The cytotoxicity assay used sulforhodamine B which stains the basic amino acids. Cells (5000 or 2500 for SKOV-3) were seeded into 96 well microtitre plates (Linbro, Flow Laboratories Inc., USA) in 0.1 ml of medium. After an overnight incubation, the metal phosphine compounds were dissolved in 0.9% NaCl or ethanol and diluted with medium, were added at concentrations ranging from 0.005 to 50 μM to quadruplicate wells. After 96 hrs incubation, the medium was removed and cells were fixed in 0.2 ml of cold 10% (w/v) trichloroacetic acid (May & Baker Ltd., Dagenham, England) for 30 mins at 4° C. The plates were washed five times with tap water. Then 0.1 ml of 0.4% (w/v) sulforhodamine B (Sigma Chemical Co., St. Louis, USA) dissolved in 1% acetic acid (Ajax Chemicals, Australia) was added to the wells and left to stand at room temperature for 15 mins. The plates were then washed five times with 1% acetic acid and left to dry overnight. The next morning, 0.1 ml of 10 mM Tris buffer (Sigma Chemical Co., St. Louis, USA) was then added to each plate to solubilise the dye. Absorbance was read at a wavelength of 570 nm using a 96 well plate reader Dynatech MR 5000 plate reader. Absorbance of treatment cells was expressed as a percentage of positive (drug-free) controls. The results were plotted as percentage growth versus drug concentration.

41M [8] = assay: cytotoxicity assay, sulforhodamine B; assay type: cell-based, human; conditions: Homo sapiens, 96 hrs, mean ± SD or individual values when n<3
Experimental: as §1, §2, §3

41M-cisR [9] = assay: cytotoxicity assay, sulforhodamine B; assay type: cell-based, human; conditions: Homo sapiens, 41McisR, 96 hrs, mean ± SD or individual values when n<3
Experimental: as §1, §2, §3

SKOV-3 [10] = assay: cytotoxicity assay, sulforhodamine B; assay type: cell-based, human; conditions: Homo sapiens, SK-OV-3, 96 hrs, mean ± SD or individual values when n<3
Experimental: as §1, §2, §3

CH1-cisR [11] = assay: cytotoxicity assay, sulforhodamine B; assay type: cell-based, human; conditions: Homo sapiens, CH1cisR, 96 hrs, mean ± SD or individual values when n<3
Experimental: as §1, §2, §3

[12] = from Chen in Cancer Cells 1; cited from earlier work
[13] = test system: 41M, 41M-cisR, SKOV-3, CH1, CH1-cisR; assay: growth inhibition of cisplatin-sensitive and -resistant ovarian cancer cell lines (Table 2, FIG. 5); assay type: cell-based, human; conditions: 41M/41M-cisR and CH1/CH1-cisR pairs
Source text: (§4) The sensitive CH1 cell line was established from a patient with drug-sensitive disease and its resistant variant (CH1-cisR) was generated by prolonged in vitro exposure to cisplatin during which it acquired more efficient DNA repair as described in Kelland et al., 1992, Cancer Research 52 3857-3864. The sensitive 41M cell line was also established from a patient with a sensitive tumor and its resistant variant (41M-cisR) was generated in the same way but acquired decreased uptake across the cell membrane (Kelland et al., 1992, supra). The intrinsically-resistant SKOV-3 ovarian carcinoma cell line has high glutathione levels as described in Mistry et al., 1991, Brit. J. Cancer 64 215-220 and reduced levels of bi-functional cisplatin-DNA lesions as described in McKeage et al., 1994, Brit. J. Cancer 69 1-7. The characteristics of the cell line pairs CH1/CH1 cisR, 41M/41McisR and 41M/SKOV3 are described in Table 3.
as §3, with “concentration. The drug concentration resulting in a 50% growth inhibition was termed the IC50. The passage numbers used for the cytotoxicity assay from each cell line were, CH1 passages 50-58, CH1 cis-R passages 77-83, 41M passages 50-63, 41M cisR 81-92 and SKOV-3 passages 106-128.” for “concentration.”

tumour models in mice = conditions: literature; mice; cited from earlier work
human tumour cell lines = assay: selectivity of cytotoxicity over all cell lines evaluated (Tables 1 and 2); assay type: cell-based
Source text: The origins of the human melanoma cell line MM96 has been described in Whitehead et al., 1973, Pigment Cell 1 383-389. The cell line JAM is described in Ward et al., 1987, Cancer Res. 47 2662-2667. The origin of the ovarian tumour line CI-80-13S has been described in Bertoncello et al., 1985, Aust. J. Exp. Biol. Med. Sci. 63 241-243. The origin of the cervical carcinoma cell line HeLa has been described in Maynard et al., 1986, Cancer Res. 46 5009-5093. The subclone HeLa-S1a was derived by stably transfecting HeLa with PAI-2 cDNA described in Schleuning et al., 1987, Mol. Cell. Biol. 7 4564-4567 in the sense orientation under the control of the cyto-megalovirus (CMV) promoter. The stably infected subclone was isolated following G418 selection and expression of the PAI-2 transgene characterised by immunoblot analysis and quantitated by ELISA. All of these cell lines have been used before for carrying out cell survival assays referred to in FIGS. 1-4. Cells were cultured at 37° in 5% CO2 /air in Roswell Park Memorial Institute medium 1640 containing 5% foetal calf serum, 100 μg/ml streptomycin, 100 IU/ml penicillin, 1 mM pyruvate, 50 μM nicotinamide and 3 mM HEPES.
Cells were seeded in microtitre plates (lowest number for fastest growing cells: 1000 HeLa, 2000 MM96, […] CI-80-13S cells per 6 mm well in 100 μl), normally but not necessarily allowed to attach overnight, then 5 dilutions of the drug were added to duplicate wells. After an overnight incubation to equilibrate the pH, the lids were quickly taped around the edge to prevent evaporation. The plates were incubated for 5-7 days, until the controls were nearly confluent. Cell growth/morphology was scored at each dose visually (inverted microscope). The medium was then replaced by 50 μl fresh medium containing 2 u/Ci/ml [methyl-3H]-thymidine (5 Ci/mmol; Radiochemical Centre, Amersham, Bucks., U.K.) and incubated for 2-4 hr. The cells were washed with PBS (0.1 M NaCl, 50 mM phosphate, pH 7.2), detached with 100 μl of PBS containing 0.2 mg/ml trypsin and 10 mM EDTA, and washed onto a glass fibre GF/a filter mat with water using a cell harvester. Later, wells were checked under the microscope to ensure complete detachment and washout. Radioactivity was determined in an LKB Beta Plate counter and the results plotted as log % control cpm versus dose. The ID50 (dose required to give 50% survival) was interpolated from this survival curve.
as §4
The cytotoxicity assay used sulforhodamine B which stains the basic amino acids. Cells (5000 or 2500 for SKOV-3) were seeded into 96 well microtitre plates (Linbro, Flow Laboratories Inc., USA) in 0.1 ml of medium. After an overnight incubation, the metal phosphine compounds were dissolved in 0.9% NaCl or ethanol and diluted with medium, were added at concentrations ranging from 0.005 to 50 μM to quadruplicate wells. After 96 hrs incubation, the medium was removed and cells were fixed in 0.2 ml of cold 10% (w/v) trichloroacetic acid (May & Baker Ltd., Dagenham, England) for 30 mins at 4° C. The plates were washed five times with tap water. […]

[14] = attributed to lipophilic cationic properties; cited from earlier work
DNA in tumour cells = conditions: cited from earlier work
Beagle dogs = conditions: cited from earlier work
[15] = test system: mitochondrial membrane / oxidative phosphorylation; conditions: cited from earlier work

For `N.N.[Cl][Pt][Cl]` [Cisplatin], the “ID37” value (JAM) is listed as 0.83 ± 0.3 µM, the IC50 (CH1 [1]) is listed as 110 ± 10 nM and the IC50 (41M [2]) is listed as 260 ± 100 nM. For the same compound, the “ID37” value (HeLa) was 0.29 ± 0.04 µM, the IC50 (41M-cisR [3]) was 1200 ± 400 nM and the IC50 (CH1-cisR [4]) was 710 ± 200 nM. For the same compound, the “ID37” value (HeLa-S1a) was 0.62 ± 0.08 µM, the IC50 (SKOV-3 [5]) was 2100 nM and the “Rhodamine 123 uptake” value (Rhodamine 123 uptake) was “Rhodamine 123 uptake increases”. The “ID37” value (CI-80-13S) was 4.17 ± 0.5 µM.

For `CCN(CC)c1ccc2c(-c3ccccc3C(=O)O)c3ccc(=[N+](CC)CC)cc-3oc2c1` [Rhodamine, reference compound], the “ID37” value (JAM) is listed as 0.90 ± 0.03 µM, the accumulation in mitochondria [6] is listed as “accumulate in the mitochondria of most carcinoma derived cells more rapidly than in most untransformed cells” and the “ID37” value (HeLa) is listed as 2.73 ± 0.28 µM. For the same compound, the “ID37” value (HeLa-S1a) was 0.58 ± 0.08 µM, the IC50 (CH1 [7]) was 900 nM and the IC50 (41M [8]) was 3000 nM. The IC50 (41M-cisR [9]) was 1000 nM, the IC50 (SKOV-3 [10]) was 1000 nM and the IC50 (CH1-cisR [11]) was 500 nM. For the same compound, the “ID37” value (CI-80-13S) was 0.105 ± 0.026 µM, the partition co-efficient [12] was 0.34 and the “sensitivity of cisplatin resistant cells versus non-resistant cells” value [13] was “the cisplatin resistant cells are more sensitive to Rhodamine than the nonresistant cells”.

In the case of `[Au+].[Cl-].c1ccc(P(CCP(c2ccccc2)c2ccccc2)c2ccccc2)cc1.c1ccc(P(CCP(c2ccccc2)c2ccccc2)c2ccccc2)cc1` [[Au(dppe)2]Cl], the antitumour activity (tumour models in mice) is listed as “good antitumour activity”, the “ID37” value (JAM) is listed as 0.73 ± 0.15 µM and the degree of selectivity (human tumour cell lines; Tables 1 and 2) is listed as “the least selectivity”. The “number of cell lines against which cytotoxic” value (human tumour cell lines; nine cell-lines tested / all evaluated) was “cytotoxic to all the cell lines evaluated”, the hepatotoxicity [14] was “severe and unacceptable hepatotoxicity” and the DNA damage (DNA in tumour cells) was “produced DNA-single strand breaks and DNA-protein crosslinks in tumour cells”. For the same compound, the “toxicities in preclinical trials” value (Beagle dogs) was “severe cardiac, hepatic and vascular toxicities”, the “ID37” value (HeLa) was 0.95 ± 0.13 µM and the “ID37” value (HeLa-S1a) was 0.073 ± 0.005 µM. The “ID37” value (CI-80-13S) was 0.20 ± 0.03 µM and the “effect on mitochondrial function” value [15] was “uncouples oxidative phosphorylation via dissipation of the membrane potential”.
